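Protocol summary: plate cells (96-well), add compound at 5 concentrations, incubate 48 h, interpolate endpoints linearly. TGI marks complete inhibition of growth.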 Where only a bound is given, the exact number is not on record here.

The first test deals with 786-0 renal. The experiment in a line: DTP human tumour cell line panel, 48 h.
Regarding `CC(=O)O[C@H]1CC[C@@]2(C)C(=CC[C@H]3[C@@H]4C[C@H](N5CCCC5)[C@H](OC(C)=O)[C@@]4(C)CC[C@@H]32)C1`, the TGI was greater than 100 µM.
The same measure, in the same setting: next, `CC1=NN2C(=N)/C(=C/c3ccco3)C(=O)N=C2S1`: greater than 100 µM; `COc1cccc(C2CC(C)=Nc3c(ccc4c3C(=O)c3ccccc3C4=O)N2)c1O` (stereo not drawn): greater than 100 µM; `COc1ccc(Nc2nc(NS(=O)(=O)c3cc(C)c(Cl)cc3S)n[nH]2)cc1`: greater than 100 µM.

In the next test the test system is A498 renal. The experiment in a line: DTP human tumour cell line panel, 48 h.
In the case of `CC(=O)O[C@H]1CC[C@@]2(C)C(=CC[C@H]3[C@@H]4C[C@H](N5CCCC5)[C@H](OC(C)=O)[C@@]4(C)CC[C@@H]32)C1`, the concentration for total growth inhibition (TGI) was greater than 100 µM.
Still for that read-out and setting: next, `CC1=NN2C(=N)/C(=C/c3ccco3)C(=O)N=C2S1`: greater than 100 µM.
Still for that read-out and setting: the same measure for `COc1cccc(C2CC(C)=Nc3c(ccc4c3C(=O)c3ccccc3C4=O)N2)c1O` (stereo not drawn): greater than 100 µM; for `COc1ccc(Nc2nc(NS(=O)(=O)c3cc(C)c(Cl)cc3S)n[nH]2)cc1`: greater than 100 µM.

Another test relates to A549 NSCLC. In words: DTP human tumour cell line panel, 48 h.
Take `CC(=O)O[C@H]1CC[C@@]2(C)C(=CC[C@H]3[C@@H]4C[C@H](N5CCCC5)[C@H](OC(C)=O)[C@@]4(C)CC[C@@H]32)C1`: the TGI was greater than 100 µM.
On the same count and under the same terms, the same measure for `CC1=NN2C(=N)/C(=C/c3ccco3)C(=O)N=C2S1`: greater than 100 µM; for `COc1cccc(C2CC(C)=Nc3c(ccc4c3C(=O)c3ccccc3C4=O)N2)c1O` (stereo not drawn): greater than 100 µM.
Same read-out and setting: next, `COc1ccc(Nc2nc(NS(=O)(=O)c3cc(C)c(Cl)cc3S)n[nH]2)cc1`: greater than 100 µM.

Another test deals with ACHN renal. The experiment in a line: DTP human tumour cell line panel, 48 h.
For the compound `CC(=O)O[C@H]1CC[C@@]2(C)C(=CC[C@H]3[C@@H]4C[C@H](N5CCCC5)[C@H](OC(C)=O)[C@@]4(C)CC[C@@H]32)C1`, the TGI was greater than 100 µM.
As for `CC1=NN2C(=N)/C(=C/c3ccco3)C(=O)N=C2S1`, the TGI is greater than 100 µM.
On the same count and under the same terms, the same measure for `COc1cccc(C2CC(C)=Nc3c(ccc4c3C(=O)c3ccccc3C4=O)N2)c1O` (stereo not drawn): greater than 100 µM; for `COc1ccc(Nc2nc(NS(=O)(=O)c3cc(C)c(Cl)cc3S)n[nH]2)cc1`: greater than 100 µM.

The test system of the next test is BT-549 breast. In words: DTP human tumour cell line panel, 48 h.
`CC(=O)O[C@H]1CC[C@@]2(C)C(=CC[C@H]3[C@@H]4C[C@H](N5CCCC5)[C@H](OC(C)=O)[C@@]4(C)CC[C@@H]32)C1` gave a TGI greater than 100 µM.
Same read-out and setting: next, `CC1=NN2C(=N)/C(=C/c3ccco3)C(=O)N=C2S1`: greater than 100 µM; `COc1ccc(Nc2nc(NS(=O)(=O)c3cc(C)c(Cl)cc3S)n[nH]2)cc1`: greater than 100 µM.

The test system of the next test is CAKI-1 renal. In words: DTP human tumour cell line panel, 48 h.
`CC(=O)O[C@H]1CC[C@@]2(C)C(=CC[C@H]3[C@@H]4C[C@H](N5CCCC5)[C@H](OC(C)=O)[C@@]4(C)CC[C@@H]32)C1` gave a TGI greater than 100 µM.
Same read-out and setting: next, `CC1=NN2C(=N)/C(=C/c3ccco3)C(=O)N=C2S1`: greater than 100 µM; `COc1ccc(Nc2nc(NS(=O)(=O)c3cc(C)c(Cl)cc3S)n[nH]2)cc1`: greater than 100 µM.

The next test has as its system CCRF-CEM leukemia. The experiment in a line: DTP human tumour cell line panel, 48 h.
Regarding `CC(=O)O[C@H]1CC[C@@]2(C)C(=CC[C@H]3[C@@H]4C[C@H](N5CCCC5)[C@H](OC(C)=O)[C@@]4(C)CC[C@@H]32)C1`, the TGI was greater than 100 µM.
On the same count and under the same terms, the same measure for `CC1=NN2C(=N)/C(=C/c3ccco3)C(=O)N=C2S1`: greater than 100 µM; for `COc1ccc(Nc2nc(NS(=O)(=O)c3cc(C)c(Cl)cc3S)n[nH]2)cc1`: greater than 100 µM.

The test system of another test is COLO 205 colon. In words: DTP human tumour cell line panel, 48 h.
On to `CC(=O)O[C@H]1CC[C@@]2(C)C(=CC[C@H]3[C@@H]4C[C@H](N5CCCC5)[C@H](OC(C)=O)[C@@]4(C)CC[C@@H]32)C1`, for which the total growth inhibition concentration (TGI) was greater than 100 µM.
The same measure, in the same setting: the same measure for `CC1=NN2C(=N)/C(=C/c3ccco3)C(=O)N=C2S1`: greater than 100 µM; for `COc1cccc(C2CC(C)=Nc3c(ccc4c3C(=O)c3ccccc3C4=O)N2)c1O` (stereo not drawn): greater than 100 µM.
Compound `COc1ccc(Nc2nc(NS(=O)(=O)c3cc(C)c(Cl)cc3S)n[nH]2)cc1` displayed a TGI greater than 100 µM.

For the next test, the system named is DLD-1 colon. The experiment in a line: DTP human tumour cell line panel, 48 h.
`COc1cccc(C2CC(C)=Nc3c(ccc4c3C(=O)c3ccccc3C4=O)N2)c1O` (stereo not drawn) had a TGI greater than 100 µM.

Another test deals with DMS 114 small cell lung. The experiment in a line: DTP human tumour cell line panel, 48 h.
Take `COc1cccc(C2CC(C)=Nc3c(ccc4c3C(=O)c3ccccc3C4=O)N2)c1O` (stereo not drawn): the TGI is greater than 100 µM.

For the next test, the system named is DU-145 prostate. The experiment in a line: DTP human tumour cell line panel, 48 h.
As to `CC(=O)O[C@H]1CC[C@@]2(C)C(=CC[C@H]3[C@@H]4C[C@H](N5CCCC5)[C@H](OC(C)=O)[C@@]4(C)CC[C@@H]32)C1`, the TGI was greater than 100 µM.
Still for that read-out and setting: next, `CC1=NN2C(=N)/C(=C/c3ccco3)C(=O)N=C2S1`: greater than 100 µM; `COc1ccc(Nc2nc(NS(=O)(=O)c3cc(C)c(Cl)cc3S)n[nH]2)cc1`: greater than 100 µM.

A further test concerns EKVX NSCLC. The experiment in a line: DTP human tumour cell line panel, 48 h.
Take `CC(=O)O[C@H]1CC[C@@]2(C)C(=CC[C@H]3[C@@H]4C[C@H](N5CCCC5)[C@H](OC(C)=O)[C@@]4(C)CC[C@@H]32)C1`: the TGI is greater than 100 µM.
The compound `CC1=NN2C(=N)/C(=C/c3ccco3)C(=O)N=C2S1` came in with a TGI greater than 100 µM.
Same read-out and setting: the same measure for `COc1cccc(C2CC(C)=Nc3c(ccc4c3C(=O)c3ccccc3C4=O)N2)c1O` (stereo not drawn): greater than 100 µM.
The same measure, in the same setting: the same measure for `COc1ccc(Nc2nc(NS(=O)(=O)c3cc(C)c(Cl)cc3S)n[nH]2)cc1`: greater than 100 µM.

The test system of another test is HCC-2998 colon. In words: DTP human tumour cell line panel, 48 h.
`CC(=O)O[C@H]1CC[C@@]2(C)C(=CC[C@H]3[C@@H]4C[C@H](N5CCCC5)[C@H](OC(C)=O)[C@@]4(C)CC[C@@H]32)C1` displayed a TGI greater than 100 µM.
Same read-out and setting: next, `CC1=NN2C(=N)/C(=C/c3ccco3)C(=O)N=C2S1`: greater than 100 µM; `COc1cccc(C2CC(C)=Nc3c(ccc4c3C(=O)c3ccccc3C4=O)N2)c1O` (stereo not drawn): greater than 100 µM; `COc1ccc(Nc2nc(NS(=O)(=O)c3cc(C)c(Cl)cc3S)n[nH]2)cc1`: greater than 100 µM.

In another test the test system is HCT-116 colon. In words: DTP human tumour cell line panel, 48 h.
For the compound `CC(=O)O[C@H]1CC[C@@]2(C)C(=CC[C@H]3[C@@H]4C[C@H](N5CCCC5)[C@H](OC(C)=O)[C@@]4(C)CC[C@@H]32)C1`, the TGI is greater than 100 µM.
Same read-out and setting: next, `CC1=NN2C(=N)/C(=C/c3ccco3)C(=O)N=C2S1`: greater than 100 µM.
Still for that read-out and setting: next, `COc1cccc(C2CC(C)=Nc3c(ccc4c3C(=O)c3ccccc3C4=O)N2)c1O` (stereo not drawn): greater than 100 µM.
The same measure, in the same setting: the same measure for `COc1ccc(Nc2nc(NS(=O)(=O)c3cc(C)c(Cl)cc3S)n[nH]2)cc1`: greater than 100 µM.

A further test relates to HCT-15 colon. The experiment in a line: DTP human tumour cell line panel, 48 h.
Regarding `CC(=O)O[C@H]1CC[C@@]2(C)C(=CC[C@H]3[C@@H]4C[C@H](N5CCCC5)[C@H](OC(C)=O)[C@@]4(C)CC[C@@H]32)C1`, the TGI is greater than 100 µM.
Regarding `CC1=NN2C(=N)/C(=C/c3ccco3)C(=O)N=C2S1`, the TGI is greater than 100 µM.
The same measure, in the same setting: the same measure for `COc1cccc(C2CC(C)=Nc3c(ccc4c3C(=O)c3ccccc3C4=O)N2)c1O` (stereo not drawn): greater than 100 µM; for `COc1ccc(Nc2nc(NS(=O)(=O)c3cc(C)c(Cl)cc3S)n[nH]2)cc1`: greater than 100 µM.

The next test has as its system HL-60(TB) leukemia. The experiment in a line: DTP human tumour cell line panel, 48 h.
The compound `CC(=O)O[C@H]1CC[C@@]2(C)C(=CC[C@H]3[C@@H]4C[C@H](N5CCCC5)[C@H](OC(C)=O)[C@@]4(C)CC[C@@H]32)C1` registered a concentration for total growth inhibition (TGI) greater than 80.9 µM.
`CC1=NN2C(=N)/C(=C/c3ccco3)C(=O)N=C2S1` gave a TGI greater than 100 µM.
In the case of `COc1cccc(C2CC(C)=Nc3c(ccc4c3C(=O)c3ccccc3C4=O)N2)c1O` (stereo not drawn), the TGI is greater than 100 µM.

One may read the TGI as the concentration at which net growth stops. The low end stands for greater sensitivity of the cells, the high end for lower sensitivity of the cells.
